# Paper PMC5520057, “Modulation of nongenomic activation of PI3K signalling by tetramerization of N-terminally-cleaved RXRα” (Nature Communications, 2017)
# Columns and labels:
# [1] = tested on: p85α / tRXRα/R316E interaction; experiment: coIP, p85α with tRXRα/R316E; type: cell-based; settings: HEK293T cells; K-80003 (5 × 10^−6 M) for 6 h; coIP anti-HA
# Description: For coIP assay[29], HEK293T cells grown in 10 cm dishes were transfected with various plasmids. Cells were lysed in 1 ml of lysis buffer (20 mM Tris (pH 7.5), 150 mM NaCl, 1% Triton X-100, 1 mM EDTA, 30 mM NaF, 2 mM sodium pyrophosphate) with a cocktail of proteinase inhibitors (Roche). Lysates were incubated with the appropriate antibody for 12 h at 4 °C and subsequently incubated with protein A-Sepharose beads for 1 h. The immunoprecipitates were collected and washed three times with lysis buffer. The protein–antibody complexes recovered on beads were subjected to immunoblotting using appropriate antibodies after separation by SDS-PAGE. Input represents 5% of cell lysates used for coIP assays.
# [2] = tested on: PyMT mammary tumour; experiment: MMTV-PyMT transgenic mice, mammary tumour; type: in vivo; settings: 4-week old MMTV-PyMT mice; diet with K-80003 (100 mg kg^−1) for 4 weeks
# Description: For nude mice xenograft study, Myc-RXRα and Myc-tRXRα cloned into pcdna3.0 vector were stably transfected into MCF-7 cells, and the resulting stable clones and control clone (2 × 10^6 cells in 100 μl) were injected subcutaneously into nude mice (BALB/c, SPF grade, 16–18 g, 4–5-week old). For drug treatment, mice were intraperitoneally injected (i.p.) daily with K-80003 (20 mg kg^−1) diluted in Tween-80 or vehicle (tween-80). Body weight and tumour size were measured every 2 days. Mice were killed after 12-day drug treatment and the tumours removed for various assessments. For MMTV-PyMT transgenic mouse study, 4-week old female mice of a transgenic mouse on the FVB/N genetic background expressing the PyMT oncogene under the control of MMTV LTR promoter[40] were fed with diet containing with or without K-80003 (100 mg kg^−1) for 4 weeks. Estimation of tumour appearance was performed by palpation once every day. Tumour tissues of left thoracic mammary glands were excised after the treatment. Portion of tissues was used to prepare extracts for western blotting, while the rest was fixed in 4% phosphate-buffered paraformaldehyde, and used for immunohistochemical staining using anti-Ki67 antibody and immunostaining using Δ197 anti-RXRα antibody. All experimentations and animal usage were performed and approved by the Animal Care and Use Committee of Xiamen University.
# [3] = tested on: RXRα-LBD/R316E; experiment: Non-denaturing gel electrophoresis, R316E mutant; type: biochemical, human; settings: 9-cis-RA (0.5 μM) or K-80003 (20 μM), 3 h at 4 °C
# Description: (§1) The human RXRα LBD (residues Thr223 to Thr462) cloned as an N-terminal histidine-tagged fusion protein in pET15b expression vector was expressed in Escherichia coli BL21 strain (Stratagene). After sonication, cell extract was incubated with the His60 Ni Superflow resin, and His-tagged RXRα-LBD-resin complexes were washed, eluted and concentrated to 5 mg ml^−1 for subsequent trails. For crystallization experiment, bovine thrombin (Sigma) was used to cleave the His tag from the purified His-tagged RXRα-LBD. The resulting His tag was removed on the Resource-Q column (GE) using 0.1–1 M NaCl gradient and the Tris-Cl pH 8 buffer. RXRα-LDB was further purified using gel filtration on a Superdex 200 2660 column (GE) pre-equilibrated with the 75 mM NaCl, 20 mM Tris-Cl buffer (pH 8).
# [4] = biological target: T1, RXRα-LBD (Homo sapiens, UniProt P19793); experiment: Isothermal titration calorimetry (ITC), RXRα-LBD; type: binding; settings: 25 °C, protein 50 μM in 25 mM Tris-HCl, pH 7.5, 150 mM NaCl, 0.1% DMSO, compound 1 mM
# T1 construct: The human RXRα LBD (residues Thr223 to Thr462); made in house; host or cells: Escherichia coli BL21
# T1 sequence (P19793 223-462): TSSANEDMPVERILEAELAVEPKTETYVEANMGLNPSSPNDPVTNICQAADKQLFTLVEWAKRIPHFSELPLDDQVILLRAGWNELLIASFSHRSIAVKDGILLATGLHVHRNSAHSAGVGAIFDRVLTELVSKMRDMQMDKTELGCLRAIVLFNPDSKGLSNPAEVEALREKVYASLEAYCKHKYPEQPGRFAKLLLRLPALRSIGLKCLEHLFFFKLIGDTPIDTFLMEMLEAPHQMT
# Description: as §1
# Binding of compounds to RXRα-LBD or mutant was studied in […] at 25 °C using isothermal titration calorimetry (ITC) assay that measures the heat either released or absorbed during binding. The purified His-tagged RXRα-LBD or mutant protein (50 μM in 25 mM Tris-HCl, pH 7.5, 150 mM NaCl, 0.1% DMSO) was placed in the sample cell of MicroCal VP-ITC titration calorimeter. The compounds to be studied were diluted to a concentration of 1 mM in the same buffer. All solutions were degassed before the titrations. […] Calorimetric data were analysed using MicroCal Origin software (version 7.0).
# [5] = tested on: MCF-7 xenograft tumours; experiment: MCF-7/tRXRα xenograft tumours, western blotting; type: in vivo, nude mice; settings: MCF-7/tRXRα tumour; K-80003 20 mg kg^−1 i.p., 12 days
# Description: Proteins or cell lysates were electrophoresed by SDS-PAGE gel and transferred to polyvinylidene difluoride (PVDF) membrane. The membranes were blocked with 5% skimmed milk in TBST (50 mM Tris-HCl (pH 7.4), 150 mM NaCl and 0.1% Tween20) for 1 h, then incubated with primary antibodies and secondary antibodies and detected using ECL system (Thermo). The dilutions of the primary antibodies were anti-RXRα (ΔN197, Santa Cruz) in 1:1,000, anti-PARP (H-250, Santa Cruz) in 1:3,000, anti-p85α (Millipore) in 1:1,000, anti-p-AKT (D9E, Cell Signaling Technology) in 1:1000, anti-AKT1/2/3 (H-136, Santa Cruz) in 1:1,000, anti-β-actin (Sigma) in 1:5,000, anti-c-myc (9E10, Santa Cruz) in 1:3,000, anti-HA (F-7, Santa Cruz) in 1:3,000, anti-Flag (F1804, Sigma) in 1:3,000. Images of all uncropped western blots can be found in Supplementary Figs 10–14.
# For nude mice xenograft study, Myc-RXRα and Myc-tRXRα cloned into pcdna3.0 vector were stably transfected into MCF-7 cells, and the resulting stable clones and control clone (2 × 10^6 cells in 100 μl) were injected subcutaneously into nude mice (BALB/c, SPF grade, 16–18 g, 4–5-week old). For drug treatment, mice were intraperitoneally injected (i.p.) daily with K-80003 (20 mg kg^−1) diluted in Tween-80 or vehicle (tween-80). Body weight and tumour size were measured every 2 days. […]
# [6] = tested on: RXRα-LBD/F439A; experiment: Non-denaturing gel electrophoresis, F439A mutant; type: biochemical, human; settings: K-80003 (20 μM), 3 h at 4 °C
# Description: as §1
# [7] = tested on: RXRα-LBD; experiment: BS3 crosslinking, transfected RXRα-LBD; type: cell-based; settings: HepG2 cells; 9-cis-RA (10^−7 M) or K-80003 (5 × 10^−6 M) for 6 h; BS3 1 mM; western blotting
# Description: Cell lysates were then prepared and incubated with bis[sulfosuccinimidyl] suberate (BS3, Pierce) dissolved in dimethyl sulfoxide to a final concentration of 1 mM. The reactions were stopped with protein gel loading buffer. Samples were resolved by SDS/PAGE in 8% acrylamide gels and protein bands were visualized by western blotting.
smiles,measurement,setting,value
CC1=C(CC(=O)O)c2cc(F)ccc2/C1=C\c1ccc(C(C)C)cc1 [K-80003],modulation of tRXRα/R316E interaction with p85α,[1],failed to modulate the interaction of both mutants with p85α
same,growth of PyMT mammary tumour,[2],potently inhibited the growth of PyMT mammary tumour
same,effect on oligomeric state of RXRα-LBD/R316E,[3],exhibited mainly as a tetramer independent of the presence of either 9-cis-RA or K-80003
same,N (stoichiometry),[4],1.52
same,AKT activation in tumours,[5],reduced AKT activation
same,PARP cleavage in tumours,[5],enhanced PARP cleavage
same,effect on tetramerization of F439A mutant,[6],impaired the tetramerization of respective mutants by K-80003
same,crosslinked RXRα-LBD species,[7],"crosslinked species on SDS-PAGE gels of 25, 50 and 100 kDa, corresponding to monomer, dimer and tetramer of RXRα-LBD"
